We go through six compounds from publication PMC12631985 (Environmental Science & Technology, 2025).

One data set deals with AR mRNA. In words: Quantitative RT-PCR for DHT-induced AR mRNA expression in 22Rv1/MMTV-GRKO cells. The class given is cell-based, human. The note with it: with DHT; highest noncytotoxic concentration (≥80% viability); n = 3.
The subject of another data set is zebrafish. The note with it: previous research; ref number not printed at the place; cited from earlier work.
The subject of a further data set is AR protein expression. In words: Western blot for DHT-induced AR protein expression. The note with it: highest noncytotoxic concentration (≥80% viability), n = 3. (In western blotting, separated proteins are transferred to a membrane and probed.)

SMILES strings stand for the structures.

As for `CC1(C)CCC(Cc2ccc(Cl)cc2)C1(O)Cn1cncn1` (centres unmarked) [metconazole], the “reduction in AR mRNA levels compared to the DHT-only treatment group” value (shortened to “reduction in AR mRNA levels”) in the data set with AR mRNA stood at 27.8%. On to `CCCOC/C(=N\c1ccc(Cl)cc1C(F)(F)F)n1ccnc1` [triflumizole], for which the “reduction in AR mRNA levels” value in the data set with AR mRNA was determined as 26.5%. With `C[Si](Cn1cncn1)(c1ccc(F)cc1)c1ccc(F)cc1` [flusilazole], the “reduction in AR mRNA levels” value in the data set on AR mRNA amounted to 60.4%.

On to `Fc1ccc([C@]2(Cn3cncn3)O[C@H]2c2ccccc2Cl)cc1` (racemic) [epoxiconazole], for which the “reduction in AR mRNA levels” value with AR mRNA is listed as 59.0%. In the case of `N#CC(CCc1ccc(Cl)cc1)(Cn1cncn1)c1ccccc1` (centres unmarked) [fenbuconazole], the “reduction in AR mRNA levels” value in the data set with AR mRNA is reported as 45.0%. Moreover, the toxicity in zebrafish entry in the data set on zebrafish is “significantly impaired mitochondrial function and locomotor activity”. For the same compound, in the data set on AR protein expression, the “suppression level of DHT-induced AR protein expression compared with the DHT-only treatment group” value was found to be 24.6%.

For `CC(C)(C)C(O)(CCc1ccc(Cl)cc1)Cn1cncn1` (centres unmarked) [tebuconazole], in the data set with AR mRNA, the “reduction in AR mRNA levels” value worked out at 37.5%.
